Measured values taken from patent publication EP0250134B1, “Method for combating swine dysentery” (IMCERA Group Inc., priority 1986, dated 1987).

System: Treponema hyodysenteriae
Assay: in vitro Streak Plate Test Method (inhibition endpoint / MIC on trypticase soy blood agar)
Assay type: cell-based
Conditions: first number = growth occurred, second = no growth, 48 hrs at 39°C anaerobic
Procedure: The following test procedure was used to evaluate the anti-Treponema hyodysenteriae activity of the compounds in the present invention. This test procedure establishes the lowest concentration of the compounds that will inhibit the growth on cultures of Treponema hyodysenteriae in an in vitro Streak Plate Test Method.
Procedure: Stock solutions containing 10,000, 1,000, 100, 10, 1.0, and 0.1, micrograms per milliliters of the compound to be tested were prepared. The final dilutions to establish the test concentrations in the media were made by placing the correct volume of stock solution in a petri dish, adding the media (trypticase soy blood agar), and mixing before the media solidified. After the media solidified, the test cultures of Treponema hyodysenteriae were streaked onto the surface of the agar. Petri dishes containing media without test samples were also set up as culture controls and are inoculated in the same manner. All inoculated plates were incubated at 39°C in anaerobic jars for 48 hrs. Inhibition endpoints were then determined by observing the test plates for growth or no growth of the test cultures at the various concentrations of the compounds. If the culture growth occured at one concentration but not at the next higher concentration, the inhibitory endpoint or MIC (Minimum Inhibitory Concentration) was considered the higher concentration.
Referring to Table 1, the culture numbers refer to field isolate strains of Treponema hyodysenteriae. These field isolates were isolated in Illinois, Iowa, and Nebraska. The numbers giving the results in the Table are read as follows: the first number for each isolate and compound tested corresponds to the concentration in micrograms per milliliter where growth occurred and the second number corresponds to the concentration in micrograms per milliliter where no growth occurred.

[1] = Culture No. 8064 (field isolate)
[2] = Culture No. 8072 (field isolate)
[3] = Culture No. 8076 (field isolate)
[4] = Culture No. 8080 (field isolate)
[5] = Culture No. 8087 (field isolate)
[6] = Culture No. 8098 (field isolate)
[7] = Culture No. 8125 (field isolate)
[8] = Culture No. B-100 (field isolate)
[9] = Culture No. B-140 (field isolate)

Row | Substance | Inhibition Endpoints [1] | Inhibition Endpoints [2] | Inhibition Endpoints [3] | Inhibition Endpoints [4] | Inhibition Endpoints [5] | Inhibition Endpoints [6] | Inhibition Endpoints [7] | Inhibition Endpoints [8] | Inhibition Endpoints [9]
1 | Na Zn Lysocellin | 1.0-5.0 µgs/ml | 1.0-5.0 µgs/ml | 1.0-5.0 µgs/ml | .5-1.0 µgs/ml | 1.0-5.0 µgs/ml | .1-.5 µgs/ml | 1.0-5.0 µgs/ml | 1.0-5.0 µgs/ml | 1.0-5.0 µgs/ml
2 | Ni Lysocellin | .05-.1 µgs/ml | <.01 µgs/ml | .05-.1 µgs/ml | .1-.5 µgs/ml | .05-.1 µgs/ml | .05-.1 µgs/ml | <.01 µgs/ml | <.01 µgs/ml | <.01 µgs/ml
3 | Zn Lysocellin | .1-.5 µgs/ml | .1-.5 µgs/ml | .1-.5 µgs/ml | .1-.5 µgs/ml | .05-.1 µgs/ml | .1-.5 µgs/ml | .05-.1 µgs/ml | .05-.1 µgs/ml | .05-.1 µgs/ml
